Assay results: patent US20260166046A1, “Inhibitors of methionine aminopeptidase-2 and methods of preparation and uses thereof” (Primetime Life Sciences LLC, priority 2022, published 2026)

Experiments:
[1] = in vivo; cited from earlier work
[2] = biological target: T1, Recombinant human MetAP2 (Homo sapiens, UniProt P50579); assay: MetAP2 fluorescence assay; assay type: biochemical; details: recombinant human MetAP2, H-Met-Gly-Pro-AMC substrate
T1 construct: purchased Bio-Techne/R&D systems
Experimental: MetAP2 Fluorescence Assay
Recombinant human MetAP2 (Bio-Techne/R&D systems) was diluted to 10 μg/mL in the assay buffer (50 mM HEPES, 0.1 mM CoCl2, 100 mM NaCl, pH 7.5). The substrate, H-Met-Gly-Pro-AMC (Bio-Techne/R&D systems), was diluted to 500 μM with 2 μg/mL of the coupling enzyme, recombinant human dipeptidyl peptidase-4 (Bio-Techne/R&D systems), in assay buffer. 50 μL of 10 μg/mL recombinant human METAP2 were loaded into a flat-bottom black 96-well plate (Greiner Bio), and the reaction was initiated by adding 50 μL of the substrate/dipeptidyl peptidase-4 mixture. The reaction mixture was incubated at room temperature for 10 minutes, and the fluorescence was measured for 5 minutes at excitation and emission wavelengths of 380 nm and 460 nm, respectively, in kinetic mode. For IC50determination, 0.5 μL inhibitor solution was added to the reaction mixture. The reaction rates were used to calculate IC50with KaleidaGraph.

[3] = tested on: G. lamblia GS; assay: Trophozoite viability IC50 determination, Giardia assay (ATPLite); assay type: cell-based; details: Giardia duodenalis, 72 h, read-out: Cell viability values Mean IC50 (nM) G. lamblia GS
Experimental: (§1) Giardia cultures: Trophozoites of G. lamblia isolates WB and GS were grown anaerobically in borosilicate glass screw-cap culture tubes (Fisher Scientific) at pH 7.0 in modified TYI-S-33 medium. The medium was supplemented with 10% heat-inactivated bovine serum (Sigma-Aldrich) and 0.05% bovine bile (Sigma-Aldrich). To attain low-oxygen-tension conditions, the tubes were filled to 85 to 90% of their total volume capacity and incubated without shaking at 37° C. Subcultures (2×10^5 trophozoites per tube) were made three times a week. Detachment of trophozoites for inoculation was achieved by chilling the cultures on ice for 20 min. Culturing and detachment of Metronidazole-resistant G. lamblia Assemblage A 713M3 and assemblage B 1279-M1 trophozoites followed the same protocol, except that the growth medium was supplemented with metronidazole gradually increasing the concentration to 10 μM. Amebae cultures: E. histolytica strain HM1:IMSS trophozoites were grown at 37° C. in TYI-S-33 medium supplemented with penicillin (100 U/mL) and streptomycin sulfate (100 μg/mL). Trophozoites were grown anaerobically in borosilicate tubes and subcultures were made 1-2 times a week. Trophozoites were detached for inoculation by chilling the cultures on ice for 20 minutes.
(§2) Trophozoite viability IC50determination
(§3) Giardia assays: 10 μL giardia trophozoites in growth medium were plated at a density of 10,000 cells/well in sterile 96-well black clear bottom assay plates. Fumagillin and fumagillol derivatives were 1:3 serially diluted from a 1 μM DMSO stock solution and then 100 μL/well were transferred in duplicate to the assay wells. Metronidazole (control) was 1:3 serially diluted in growth medium from a 100 μM stock solution in DMSO. The assay plates were placed in a BD GasPak™ EZ Container System (BD Diagnostics) to create an anaerobic growth environment. The sealed containers were incubated at 37° C. for 72 hr. Following incubation, 70 μL/well of the ATPLite reagent (PerkinElmer) was added to the assay plates for one-step lysis and ATP level detection. The luminescent signals of the assay plates were measured on an EnSpire 2300 plate reader (PerkinElmer). Concentration response titration points for each compound were fitted to a 4-parameters logistic nonlinear regression model using KaleidaGraph, yielding the IC50value and standard error (SE).

[4] = tested on: G. lamblia WB; assay: as above; assay type: cell-based; details: Giardia duodenalis, 72 h, read-out: Cell viability values Mean IC50 (nM) G. lamblia WB
Experimental: as §1, §2, §3

[5] = tested on: E. histolytica HM1: IMSS; assay: Trophozoite viability IC50 determination, Amebae assay (ATPLite); assay type: cell-based; details: Entamoeba histolytica, 72 h, read-out: Cell viability values Mean IC50 (nM) E. histolytica HM1: IMSS
Experimental: as §1, §2, §3
Amebae assays: The protocol is identical to that described above except that the trophozoites were plated at a density of 5000 cells/well because of their larger size.

T1 sequence (P50579 whole entry): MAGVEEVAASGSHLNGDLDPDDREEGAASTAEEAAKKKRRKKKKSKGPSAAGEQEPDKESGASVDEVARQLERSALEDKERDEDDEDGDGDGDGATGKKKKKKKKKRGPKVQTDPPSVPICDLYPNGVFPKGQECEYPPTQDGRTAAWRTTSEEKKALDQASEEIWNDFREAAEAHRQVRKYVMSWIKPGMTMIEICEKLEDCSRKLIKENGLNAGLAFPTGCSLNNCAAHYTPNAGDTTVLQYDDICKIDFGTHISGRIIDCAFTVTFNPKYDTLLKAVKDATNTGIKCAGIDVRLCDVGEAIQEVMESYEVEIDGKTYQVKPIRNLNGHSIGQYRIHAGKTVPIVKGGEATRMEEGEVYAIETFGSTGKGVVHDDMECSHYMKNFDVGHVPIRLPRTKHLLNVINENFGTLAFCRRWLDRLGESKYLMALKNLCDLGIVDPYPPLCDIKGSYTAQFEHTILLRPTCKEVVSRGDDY

Row | SMILES | body weight loss [1] [%] | immune-compromised patients with reversible toxic effect on bone marrow (primarily Thrombocytopenia) [1] [%] | spontaneous platelet count recovery after halting therapy [1] | IC50 [2] [nM] | IC50 [3] [nM] | IC50 [4] [nM] | IC50 [5] [nM]
1 | CO[C@@H]1[C@H](OC(=O)/C=C/C=C/C=C/C=C/C(=O)O)CC[C@]2(CO2)[C@H]1[C@@]1(C)O[C@@H]1CC=C(C)C [Fumagillin] | > 15 | 33 | 1-2 weeks | – | – | – | –
2 | CO[C@@H]1[C@H](OC(=O)Nc2csc(B(O)O)c2)CC[C@]2(CO2)[C@H]1[C@@]1(C)O[C@@H]1CC=C(C)C [No 40] | – | – | – | < 10 | 101 to 1000 | > 1000 | > 1000
3 | CO[C@@H]1[C@H](OC(=O)Nc2ccncc2B(O)O)CC[C@]2(CO2)[C@H]1[C@@]1(C)O[C@@H]1CC=C(C)C [No 37] | – | – | – | < 10 | 10.1 to 100 | > 1000 | > 1000
4 | CO[C@@H]1[C@H](OC(=O)Nc2cccc3c2COB3O)CC[C@]2(CO2)[C@H]1[C@@]1(C)O[C@@H]1CC=C(C)C [No 12] | – | – | – | < 10 | 10.1 to 100 | 101 to 1000 | 101 to 1000
5 | CO[C@@H]1[C@H](OC(=O)N2CCc3cc(B(O)O)cnc3C2)CC[C@]2(CO2)[C@H]1[C@@]1(C)O[C@@H]1CC=C(C)C [No 41] | – | – | – | < 10 | 10.1 to 100 | 101 to 1000 | > 1000
6 | CO[C@@H]1[C@H](OC(=O)N[C@H](C)B(O)O)CC[C@]2(CO2)[C@H]1[C@@]1(C)O[C@@H]1CC=C(C)C [No 70] | – | – | – | < 10 | 10.1 to 100 | 101 to 1000 | > 1000
